Reference: patent EP0840781B1, “METHODS AND DEVICES FOR THE REMOVAL OF PSORALENS FROM BLOOD PRODUCTS” (Cerus Corporation, priority 1995, dated 1996)
Read-outs that look alike come from different tables or passages of the source.

Legend:
[1] = test system: Salmonella typhimurium tester strains TA97a, TA98, TA100, TA102, TA1537 and TA1538
From the text: The second property that is important in testing a compound for use in methods described herein is mutagenicity. The most widely used mutagen/carcinogen screening assay is the Ames test. This assay is described by D.M. Maron and B.N. Ames in Mutation Research 113:173 ( 1983) and a specific screen is described in detail in Example 17, below. The Ames test utilizes several unique strains of Salmonella typhimurium that are histidine- dependent for growth and that lack the usual DNA repair enzymes. The frequency of normal mutations that render the bacteria independent of histidine (i.e., the frequency of spontaneous revertants) is low. The test allows one to evaluate the impact of a compound on this revenant frequency.
Because some substances are not mutagenic by themselves, but are converted to a mutagen by metabolic action, the compound to be tested is mixed with the bacteria on agar plates along with the liver extract. The liver extract serves to mimic metabolic action in an animal.
The mixtures are allowed to incubate. Growth of bacteria (if any) is checked by counting colonies.
In this example the compounds described herein are tested for their dark mutagenicity using an Ames assay. The procedures used for the Salmonella mutagenicity test as described in detail by Maron and Ames were followed exactly. Maron, D.M. and B.N. Ames, Mutation Research 113: 173 ( 1983). A brief description for each procedure is given here. The tester strains TA97a, TA98, TA 100, TA102, TA1537 and TA1538 were obtained from Dr. Ames. TA97a, TA98, TA1537 and TA1538 are frameshift tester strains. TA100 and TA102 are base-substitution tester strains. Upon receipt each strain was cultured under a variety of conditions to confirm the genotypes specific to the strains.
The first tests done with the strains were to determine the range of spontaneous reversion for each of the strains. With each mutagenicity experiment the spontaneous reversion of the tester strains to histidine independence was measured and expressed as the number of spontaneous revertants per plate. This served as the background controls.
For all experiments, the pre-incubation procedure was used. In this procedure one vial of each tester strain was thawed and 20 µL of this culture was added to 6 mL of Oxoid Nutrient Broth #2. This solution was allowed to shake for 10 hours at 37°C. In the pre-incubation procedure, 0.1 mL of this overnight culture was added to each of the required number of sterile test tubes. To half of the tubes 0.5 mL of a 10% S-9 solution containing Aroclor 1254 induced rat liver extract (Molecular Toxicology Inc., Annapolis, MD), and MgCl2, KCl, glucose-6-phosphate, NADP, and sodium phosphate buffer (Sigma, St. Louis, Missouri) were added. To the other half of the tubes 0.5 mL of 0.2M sodium phospate buffer, pH 7.4, was used in place of the S-9 mixture (the - S9 samples). Finally 0.1 mL of the test solution containing either 0, 0.1, 0.5, 1, 5, 10, 50, 100, 250, or 500 µg/mL of the test compound was added. The 0.7 mL mixture was vonexed and then pre-incubated while shaking for 20 minutes at 37°C. After shaking, 2 mL of molten top agar supplemented with histidine and biotin were added to the 0.7 mL mixture and immediately poured onto a minimal glucose agar plate (volume of base agar was 20 mL). The top agar was allowed 30 minutes to solidify and then the plates were inverted and incubated for 44 hours at 37°C. After incubation the number of revertant colonies on each plate were counted.
Maron and Ames (1983) describe the conflicting views with regard to the statistical treatment of data generated from the test.

R17 = test: r-17 bacteriophage assay: R17 treated with compound and UVA, remaining titer by plaque count on Hfr 3000 bacteria; assay type: cell-based; details: for R17 inactivation efficiency compared with AMT: varying concentration (Tables 7 and 8, FIGS. 6-10); for efficiency at inactivating R17 compared with AMT: constant concentration, varying doses of UV light 1.0-3.0 J/cm^2 (FIGS. 11-17)
Description: In the r-17 assay, the bacteriophage was placed in a solution with each compound tested and was then irradiated. The ability of the phage to subsequently infect bacteria and inhibit their growth was measured. The bacteriophage was selected for its relatively accessible nucleic acid such that the culture growth inhibition would accurately reflect nucleic acid damage by the test compounds. The bacteriophage assay for nucleic acid binding to test compounds offers a safe and inexpensive procedure to identify compounds likely to display efficient pathogen inactivation. Previous experiments support that the r-17 assay accurately measures HIV-1 sensitivity to similar compounds. […] Modified Eagles Medium (DMEM) to a final phage concentration of 10^9/mL. An aliquot (0.5 mL) was transferred to a 1.5 mL snap-top polyethylene tube. […] Louis, MO). The tubes were placed in a light device as described in EXAMPLE 1 and irradiated for between 1 and 10 minutes. […] To make the dilutions. a 0.100 mL aliquot of the irradiated solution of phage and test compound was added to the first dilution tube of 0.4 mL of media then 0.020 mL of this solution was added to the second tube of 0.5 mL medium (1:25). […] After the top agar hardened, the plates were incubated at 37 °C overnight. The plaque forming units were then counted the following morning and the titer of the phage remaining after phototreatment was calculated based on the dilution factors. The following controls were run: the "phage only" in which phage was not treated with test compound and not irradiated (listed as "starting titer" in the tables below); the "UV only" in which the phage was irradiated in the absence of test compound; and the "dark" control in which the phage/test compound solution was not irradiated before it was diluted and plated. Compounds described herein were also tested at a constant concentration for varying doses of UV light. […] The compound tested was added at the desired concentration and the samples were vortexed. […] Between each 1.0 J/cm^2 intervals, 100µL was removed from each sample and placed in the first corresponding dilution tube, then five sequential dilutions were performed for each compound tested, at all 3 irradiation doses, as described above in this example. […] The contents of each tube was poured into its own LB plate and the plates were incubated overnight at 37 °C. Plaques were counted by visual inspection the following morning.

HIV-1 = details: 1 Minute Irradiation
Description: Pathogen inactivation efficiency of several compounds described herein was evaluated by examining the ability of the compounds to inactivate cell-free virus (HIV). Inactivation of cell-free HIV was performed as follows.
As in the R17 assay, small aliquots of the compounds listed in TABLES 10 and 11, below, at the concentrations listed in the table, were added to stock HIV-1 to a total of 0.5 mL. The stock HIV (10^5 - 10^7 plaque forming units/mL) was in DMEM/15% FBS. […] Controls included HIV-I stock only, HIV-1 plus UVA only, and HIV-I plus the highest concentration of each psoralen tested, with no UVA. Post irradiation. all samples were store frozen at -70° C until assayed for infectivity by a microtiter plaque assay. Aliquots for measurement of residual HIV infectivity in the samples treated with a compound of the present invention were withdrawn and cultured.
Residual HIV infectivity was assayed using an MT-2 infectivity assay. […] The assay medium was 85% DMEM (with a high glucose concentration) containing 100 µg of streptomycin, 100 U of penicillin, 50 µg of gentamicin, and 1 µg of amphotericin B per mL, 15% FBS and 2 µg of Polybrene (Sigma Chemical Co., St. Louis, Mo.) per mL. Test and control samples from the inactivation procedure were diluted in 50% assay medium and 50% normal human pooled plasma. The samples were serially diluted directly in 96-well plates (Coming Glass Works, Coming, N.Y.). The plates were mixed on an oscillatory shaker for 30 seconds and incubated at 37°C in a 5% CO2 atmosphere for 1 to 18 hours. […] After an additional 1 hour of incubation at 37°C in 5% CO2, 0.075 mL of assay medium containing 1.6% SeaPlaque agarose (FMC Bioproducts, Rockland, Maine) and prewarmed to 38.5°C was added to each well. The plates were kept at 37°C for a few minutes until several plates had accumulated and then centrifuged in plate carriers at 600 x g for 20 minutes in a centrifuge precooled to 10°C. In the centrifuge, cell monolayers formed prior to gelling of the agarose layer. The plates were incubated for 5 days at 37°C in 5% CO2 and stained by the addition of 0.05 mL of 50 µg/mL propidium iodide (Sigma Chemical Co.) in phosphate-buffered saline (pH 7.4) to each well. After 24 to 48 hours, the red fluorescence-stained microplaques were visualized by placing the plates on an 8,000 µW/cm^2 304 nm UV light box (Fotodyne, Inc., New Berlin, Wis.). The plaques were counted at a magnification of x20 to x25 through a stereomicroscope.

[2] = 16 µM, 1 Minute irradiation = 1.2 J/cm^2, Starting Titer Approx. 7.1 Logs (Table 8)
[3] = 32 µM, 1 Minute irradiation = 1.2 J/cm^2, Starting Titer Approx. 7.1 Logs (Table 8)
[4] = 64 µM, 1 Minute irradiation = 1.2 J/cm^2, Starting Titer Approx. 7.1 Logs (Table 8)
[5] = 16 µM, HIV Starting Titer Approximately 5 Logs (Table 10)
[6] = 32 µM, HIV Starting Titer Approximately 5 Logs (Table 10)
[7] = 64 µM, HIV Starting Titer Approximately 5 Logs (Table 10)
[8] = two-fold or greater increase in revertants above background and dose dependent response
[9] = 16 µM, HIV Starting Titer Approximately 5.4 Logs (Table 11)
[10] = 32 µM, HIV Starting Titer Approximately 5.4 Logs (Table 11)
[11] = 64 µM, HIV Starting Titer Approximately 5.4 Logs (Table 11)

## [N-]=[N+]=[N-] [sodium azide, reference compound]
[1]; 1.5 µg/plate (positive control)
  revertant colonies, TA100 -S9: 965
[1]; 1.5 µg/plate (positive control), Table 18 (A), background 126
  revertant colonies, TA1538 -S9 (Table 18 (A)): 965

## Cc1oc2c(C)c3oc(=O)cc(C)c3cc2c1CNCCCN [Compound 5, 4'-(5-amino-2-aza)pentyl4,5',8-trimethylpsoralen]
R17; [2]
  R17 Log Kill: 5.6
R17; [3]
  R17 Log Kill: >6.1
R17; [4]
  R17 Log Kill: >6.1
R17
  R17 inactivation efficiency compared with AMT: significantly higher inactivation efficiency than does AMT
HIV-1; [5]
  HIV Log Kill: 0.9
HIV-1; [6]
  HIV Log Kill: 1.3
HIV-1; [7]
  HIV Log Kill: >2.6

## Cc1oc2c(C)c3oc(=O)cc(C)c3cc2c1CNCCN [Compound 1, 4'-(4-amino-2-aza)butyl-4,5',8-trimethylpsoralen]
[1]; 5 µg/plate
  revertant colonies, TA100 +S9: -24
  revertant colonies, TA100 -S9: 292
  revertant colonies, TA1538 +S9: 21
  revertant colonies, TA1538 -S9: 10
[1]; 10 µg/plate
  revertant colonies, TA100 +S9: -22
  revertant colonies, TA100 -S9: 337
  revertant colonies, TA1538 +S9: 22
  revertant colonies, TA1538 -S9: 12
[1]; [8]
  frameshift mutagenicity (Ames, summary): weak frameshift mutagen in TA1538 at 5 µg/plate in the presence of S9
[1]; two-fold or greater increase in revertants above background and dose dependent response, TA100, TA102
  base-substitution mutagenicity (Ames, summary): displayed mutation in the TA100 strain, but only in the absence of S9
R17; Experiment 2, compound only (3.2 µM), no uva
  Logs Killed: 0.1
HIV-1; [7]
  HIV Log Kill: 2.1

## Cc1oc2c(C)c3oc(=O)cc(C)c3cc2c1CNCCCNCCCN [Compound 12, 4'-(9-amino-2,6-diaza)nonyl-4.5',8-trimethylpsoralen]
R17
  efficiency at inactivating R17 compared with AMT: more efficient at inactivating R17 than was AMT
HIV-1; [9]
  HIV Log Kill: 0.4
HIV-1; [10]
  HIV Log Kill: 0.8
HIV-1; [11]
  HIV Log Kill: 1.3

## Cc1oc2c(C)c3oc(=O)cc(C)c3cc2c1CCN [Compound 3, 4'-(2-aminoethyl)-4,5',8-trimethylpsoralen]
[1]; 5 µg/plate
  revertant colonies, TA100 +S9: -19
  revertant colonies, TA100 -S9: 47
  revertant colonies, TA1538 +S9: 1
  revertant colonies, TA1538 -S9: 0
[1]; 10 µg/plate
  revertant colonies, TA100 +S9: 8
  revertant colonies, TA100 -S9: 47
  revertant colonies, TA1538 +S9: 9
  revertant colonies, TA1538 -S9: -6
[1]; [8]
  mutagenic response (Ames, summary): no mutagenicity
R17; 8 µM, 1 Minute Irradiation, Starting Titer Approx. 7.2 Logs (Table 7)
  R17 Log Kill: >6.2
R17; 8 µM, 1 Minute irradiation = 1.2 J/cm^2, Starting Titer Approx. 7.1 Logs (Table 8)
  R17 Log Kill: 5.6
R17; 16 µM, 1 Minute Irradiation, Starting Titer Approx. 7.2 Logs (Table 7)
  R17 Log Kill: >6.2
R17; [2]
  R17 Log Kill: >6.1
R17; 32 µM, 1 Minute Irradiation, Starting Titer Approx. 7.2 Logs (Table 7)
  R17 Log Kill: >6.2
R17
  R17 inactivation efficiency compared with AMT: significantly higher inactivation efficiency than does AMT
HIV-1; [6]
  HIV Log Kill: 2.7
HIV-1; [7]
  HIV Log Kill: >3.8

## Cc1cc(=O)oc2c(C)c3oc(CNCCN)c(C)c3cc12 [Compound 16, 5'-(4-amino-2-aza)butyl4,4',8-trimethylpsoralen]
R17
  R17 inactivation efficiency compared with AMT: significantly higher inactivation efficiency than does AMT

## Cc1oc2c(C)c3oc(=O)cc(C)c3cc2c1COCCCN [Compound 4, 4'-(5-amino-2-oxa)pentyl-4,5',8-trimethylpsoralen]
[1]; 5 µg/plate
  revertant colonies, TA100 +S9: -10
  revertant colonies, TA100 -S9: -41
  revertant colonies, TA1538 +S9: 7
  revertant colonies, TA1538 -S9: -2
[1]; 10 µg/plate
  revertant colonies, TA100 +S9: -3
  revertant colonies, TA100 -S9: 3
  revertant colonies, TA1538 +S9: -2
  revertant colonies, TA1538 -S9: -2
[1]; [8]
  mutagenic response (Ames, summary): no mutagenicity
R17; [2]
  R17 Log Kill: 2.3
R17; [3]
  R17 Log Kill: 4.3
R17; [4]
  R17 Log Kill: >6.1
HIV-1; [6]
  HIV Log Kill: 2.2
HIV-1; [7]
  HIV Log Kill: >3.6

## Cc1oc2c(C)c3oc(=O)cc(C)c3cc2c1COCCOCCNCCCCN [Compound 8, 4'-(12-amino-8-aza-2,5-dioxa)dodecyl-4,5',8-trimethylpsoralen]
HIV-1; [5]
  HIV Log Kill: 1.1
HIV-1; [6]
  HIV Log Kill: 1.9
HIV-1; [7]
  HIV Log Kill: 3.7

## Cc1oc2c(C)c3oc(=O)cc(C)c3cc2c1COCCOCCN [Compound 7, 4'-(7-amino-2,5-oxa)heptyl-4.5',8-trimethylpsoralen]
R17; 16 µM, 1 Minute Irradiation, Starting Titer Approx. 7.1 Logs (Table 9)
  R17 Log Kill: >6
R17; 32 µM, 1 Minute Irradiation, Starting Titer Approx. 7.1 Logs (Table 9)
  R17 Log Kill: >6
R17; 64 µM, 1 Minute Irradiation, Starting Titer Approx. 7.1 Logs (Table 9)
  R17 Log Kill: >6
HIV-1; [5]
  HIV Log Kill: 0.8
HIV-1; [6]
  HIV Log Kill: 2.1
HIV-1; [7]
  HIV Log Kill: 3.5

## Cc1oc2c(C)c3oc(=O)cc(C)c3cc2c1CNCCCNCCCCNCCCN [Compound 15, 4'-(14-amino-2,6,11-triaza)tetradecyl-4,5',8-trimethylpsoralen]
R17
  efficiency at inactivating R17 compared with AMT: more efficient at inactivating R17 than was AMT

## OO [hydrogen peroxide, reference compound]
[1]; Salmonella typhimurium, pH 7.4
  revertant colonies, TA102 -S9: 660

## Cc1oc2c(C)c3oc(=O)cc(C)c3cc2c1CNCCCOCCCCOCCN [Compound 9, 4'-(13-amino-2-aza-6,11-dioxa)tridecyl-4,5',8-trimethylpsoralen]
HIV-1; [9]
  HIV Log Kill: 0.8
HIV-1; [10]
  HIV Log Kill: 1.4
HIV-1; [11]
  HIV Log Kill: 2.7

## Nc1c2ccccc2nc2ccccc12 [9-Amino-acridine, reference compound]
[1]; 10 µg/plate
  revertant colonies, TA98 -S9: 284
  revertant colonies, TA1537 -S9: 284

## Cc1oc2c(C)c3oc(=O)cc(C)c3cc2c1CNCCCCCN [Compound 10, 4'-(7-amino-2-aza)heptyl-4,5',8-trimethylpsoralen]
R17
  efficiency at inactivating R17 compared with AMT: more efficient at inactivating R17 than was AMT
HIV-1; [9]
  HIV Log Kill: 2.0
HIV-1; [10]
  HIV Log Kill: >3.5
HIV-1; [11]
  HIV Log Kill: >3.5
